From PubChem BioAssay (NCI)
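Five compound concentrations were applied to cells in 96-well plates for 48 hours; endpoints were derived by simple linear interpolation of the resulting dose-response curve. GI50 = concentration required for 50% inhibition of growth. At the TGI there is no net growth.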

Columns and labels:
Test in all cases: NCI tumour cell line growth inhibition, 48 h
TK-10 renal = tested on: TK-10 renal
MOLT-4 leukemia = tested on: MOLT-4 leukemia
SNB-19 CNS = tested on: SNB-19 CNS
SK-MEL-5 melanoma = tested on: SK-MEL-5 melanoma
SK-MEL-28 melanoma = tested on: SK-MEL-28 melanoma
HS 578T breast = tested on: HS 578T breast
SK-OV-3 ovarian = tested on: SK-OV-3 ovarian
HOP-92 NSCLC = tested on: HOP-92 NSCLC
NCI-H23 lung = tested on: NCI-H23 lung
T-47D breast = tested on: T-47D breast
PC-3 prostate = tested on: PC-3 prostate
COLO 205 colon = tested on: COLO 205 colon
SK-MEL-2 melanoma = tested on: SK-MEL-2 melanoma
OVCAR-4 ovarian = tested on: OVCAR-4 ovarian
U251 CNS = tested on: U251 CNS
K-562 leukemia = tested on: K-562 leukemia
BT-549 breast = tested on: BT-549 breast
LOX IMVI melanoma = tested on: LOX IMVI melanoma
NCI-H522 lung = tested on: NCI-H522 lung
UO-31 renal = tested on: UO-31 renal
HT29 colon = tested on: HT29 colon
RXF 393 renal = tested on: RXF 393 renal
A549 NSCLC = tested on: A549 NSCLC
NCI-H460 lung = tested on: NCI-H460 lung
CAKI-1 renal = tested on: CAKI-1 renal
SF-295 CNS = tested on: SF-295 CNS
HCC-2998 colon = tested on: HCC-2998 colon
CCRF-CEM leukemia = tested on: CCRF-CEM leukemia
OVCAR-3 ovarian = tested on: OVCAR-3 ovarian
NCI/ADR-RES ovarian = tested on: NCI/ADR-RES ovarian
HL-60(TB) leukemia = tested on: HL-60(TB) leukemia
NCI-H226 lung = tested on: NCI-H226 lung
IGROV1 ovarian = tested on: IGROV1 ovarian
MCF7 breast = tested on: MCF7 breast
OVCAR-8 ovarian = tested on: OVCAR-8 ovarian
SNB-75 CNS = tested on: SNB-75 CNS
SN12C renal = tested on: SN12C renal
HCT-116 colon = tested on: HCT-116 colon
KM12 colon = tested on: KM12 colon
UACC-257 melanoma = tested on: UACC-257 melanoma
ACHN renal = tested on: ACHN renal
SF-539 CNS = tested on: SF-539 CNS
M14 melanoma = tested on: M14 melanoma
HOP-62 NSCLC = tested on: HOP-62 NSCLC
HCT-15 colon = tested on: HCT-15 colon
DU-145 prostate = tested on: DU-145 prostate
786-0 renal = tested on: 786-0 renal
SR leukemia = tested on: SR leukemia
RPMI-8226 leukemia = tested on: RPMI-8226 leukemia
EKVX NSCLC = tested on: EKVX NSCLC
SW-620 colon = tested on: SW-620 colon
SF-268 CNS = tested on: SF-268 CNS
UACC-62 melanoma = tested on: UACC-62 melanoma
MALME-3M melanoma = tested on: MALME-3M melanoma
MDA-MB-435 = tested on: MDA-MB-435
MDA-MB-231 breast = tested on: MDA-MB-231 breast
OVCAR-5 ovarian = tested on: OVCAR-5 ovarian

In the case of `Cn1cc(-c2csc(-c3ccccc3)n2)c2cccnc21`, the GI50 (TK-10 renal) is reported as 17.9 µM, the TGI (TK-10 renal) is reported as 39.1 µM and the GI50 (MOLT-4 leukemia) is reported as 10.3 µM. It also gave a TGI (MOLT-4 leukemia) of 29 µM, a GI50 (SNB-19 CNS) of 15.9 µM and a TGI (SNB-19 CNS) of 47.8 µM. The GI50 (SK-MEL-5 melanoma) was 13.7 µM, the TGI (SK-MEL-5 melanoma) was 26.6 µM and the GI50 (SK-MEL-28 melanoma) was 15.7 µM. The TGI (SK-MEL-28 melanoma) was 31.5 µM, the GI50 (HS 578T breast) was 11.8 µM and the TGI (HS 578T breast) was 35.5 µM. For the same compound, the GI50 (SK-OV-3 ovarian) was 18.7 µM, the TGI (SK-OV-3 ovarian) was 43.3 µM and the GI50 (HOP-92 NSCLC) was 1.81 µM. It also gave a TGI (HOP-92 NSCLC) of 15.4 µM, a GI50 (NCI-H23 lung) of 16.2 µM and a TGI (NCI-H23 lung) of 38 µM. The GI50 (T-47D breast) was 6.04 µM, the TGI (T-47D breast) was 28.5 µM and the GI50 (PC-3 prostate) was 14.4 µM. It also gave a TGI (PC-3 prostate) of 39.1 µM, a GI50 (COLO 205 colon) of 14 µM and a TGI (COLO 205 colon) of 26.9 µM. It also gave a GI50 (SK-MEL-2 melanoma) of 18.5 µM, a TGI (SK-MEL-2 melanoma) of 42.3 µM and a GI50 (OVCAR-4 ovarian) of 23.3 µM. It also gave a TGI (OVCAR-4 ovarian) of 71.4 µM, a GI50 (U251 CNS) of 13.6 µM and a TGI (U251 CNS) of 28 µM. For the same compound, the GI50 (K-562 leukemia) was 13.9 µM, the TGI (K-562 leukemia) was 48.9 µM and the GI50 (BT-549 breast) was 17.1 µM. For the same compound, the TGI (BT-549 breast) was 45.8 µM, the GI50 (LOX IMVI melanoma) was 12.8 µM and the TGI (LOX IMVI melanoma) was 25.4 µM. It also gave a GI50 (NCI-H522 lung) of 14.1 µM, a TGI (NCI-H522 lung) of 33.3 µM and a GI50 (UO-31 renal) of 11 µM. For the same compound, the TGI (UO-31 renal) was 28.3 µM, the GI50 (HT29 colon) was 14.2 µM and the TGI (HT29 colon) was 27.2 µM. The GI50 (RXF 393 renal) was 14.6 µM, the TGI (RXF 393 renal) was 33.2 µM and the GI50 (A549 NSCLC) was 16.9 µM. For the same compound, the TGI (A549 NSCLC) was 38 µM, the GI50 (NCI-H460 lung) was 16 µM and the TGI (NCI-H460 lung) was 31 µM. The GI50 (CAKI-1 renal) was 7.1 µM, the TGI (CAKI-1 renal) was 31.7 µM and the GI50 (SF-295 CNS) was 15 µM. The TGI (SF-295 CNS) was 33.7 µM, the GI50 (HCC-2998 colon) was 16.7 µM and the TGI (HCC-2998 colon) was 31.1 µM. It also gave a GI50 (CCRF-CEM leukemia) of 22.8 µM, a TGI (CCRF-CEM leukemia) of over 100 µM and a GI50 (OVCAR-3 ovarian) of 16.3 µM. The TGI (OVCAR-3 ovarian) was 32 µM, the GI50 (NCI/ADR-RES ovarian) was 19.3 µM and the TGI (NCI/ADR-RES ovarian) was 49.6 µM. The GI50 (HL-60(TB) leukemia) was 9.4 µM, the TGI (HL-60(TB) leukemia) was 34 µM and the GI50 (NCI-H226 lung) was 16.6 µM. For the same compound, the TGI (NCI-H226 lung) was 42.4 µM, the GI50 (IGROV1 ovarian) was 16.5 µM and the TGI (IGROV1 ovarian) was 37.4 µM. It also gave a GI50 (MCF7 breast) of 12.6 µM, a TGI (MCF7 breast) of 33.8 µM and a GI50 (OVCAR-8 ovarian) of 20.3 µM. For the same compound, the TGI (OVCAR-8 ovarian) was 52.4 µM, the GI50 (SNB-75 CNS) was 23.5 µM and the TGI (SNB-75 CNS) was 97.6 µM. It also gave a GI50 (SN12C renal) of 15 µM, a TGI (SN12C renal) of 28.2 µM and a GI50 (HCT-116 colon) of 13.8 µM. It also gave a TGI (HCT-116 colon) of 26.7 µM, a GI50 (KM12 colon) of 12.5 µM and a TGI (KM12 colon) of 25 µM. For the same compound, the GI50 (UACC-257 melanoma) was 21.1 µM, the TGI (UACC-257 melanoma) was 44.4 µM and the GI50 (ACHN renal) was 17.1 µM. The TGI (ACHN renal) was 52.3 µM, the GI50 (SF-539 CNS) was 14.2 µM and the TGI (SF-539 CNS) was 28.3 µM. For the same compound, the GI50 (M14 melanoma) was 13.9 µM, the TGI (M14 melanoma) was 27.8 µM and the GI50 (HOP-62 NSCLC) was 15.5 µM. It also gave a TGI (HOP-62 NSCLC) of 29.5 µM, a GI50 (HCT-15 colon) of 12.8 µM and a TGI (HCT-15 colon) of 31.7 µM. It also gave a GI50 (DU-145 prostate) of 15 µM, a TGI (DU-145 prostate) of 29.3 µM and a GI50 (786-0 renal) of 14.4 µM. It also gave a TGI (786-0 renal) of 28.2 µM, a GI50 (SR leukemia) of 9.24 µM and a TGI (SR leukemia) of 62.4 µM. It also gave a GI50 (RPMI-8226 leukemia) of 14.3 µM, a TGI (RPMI-8226 leukemia) of 98 µM and a GI50 (EKVX NSCLC) of 5.2 µM. The TGI (EKVX NSCLC) was 35.2 µM, the GI50 (SW-620 colon) was 14.9 µM and the TGI (SW-620 colon) was 30.1 µM. For the same compound, the GI50 (SF-268 CNS) was 16.8 µM, the TGI (SF-268 CNS) was 43 µM and the GI50 (UACC-62 melanoma) was 12.3 µM. It also gave a TGI (UACC-62 melanoma) of 25.5 µM, a GI50 (MALME-3M melanoma) of 16.4 µM and a TGI (MALME-3M melanoma) of 42.6 µM. The GI50 (MDA-MB-435) was 11.2 µM, the TGI (MDA-MB-435) was 26.5 µM and the GI50 (MDA-MB-231 breast) was 13.5 µM. The TGI (MDA-MB-231 breast) was 30.8 µM, the GI50 (OVCAR-5 ovarian) was 14 µM and the TGI (OVCAR-5 ovarian) was 32.7 µM.
